Laboratory results published in patent publication US11839610B2 (priority 2022, dated 2023).
Read-outs that look alike come from different tables or passages of the source.

Test system: D614G S protein pseudovirus (nCoV-S-Luc-D614G) in ACE2-293T cells
Assay type: cell-based, SARS-CoV-2

`COc1cc2c3cc1Oc1c4c(cc5c1[C@H](Cc1ccc(cc1)Oc1cc(ccc1O)C[C@H]3N(C)CC2)N(C)CC5)OCO4` [Cepharanoline] was tested, and the “Levels of viral infection, D614G, Ave.” value (Conc. 0.1 μM) was 72.97%, the “Levels of viral infection, D614G, Ave.” value (Conc. 1 μM) was 39.14% and the “Levels of viral infection, D614G, Ave.” value (Conc. 10 μM) was −20.02%. The IC50 (read-out: 50% inhibitory concentrations (IC50) for viral infection, D614G) was 480 ± 90 nM.
